Experimental data published in the supplement of paper PMC10307832.

How the values were obtained:
Test in all cases: relative viability (nuclei count vs DMSO), 5 days (fraction); higher = more cells survive
[1] = compound: COc1nc(N)nc2c1ncn2[C@@H]1O[C@H](CO)[C@@H](O)[C@@H]1O [Nelarabine] + C[C@]1(O)C[C@@H](c2nc(-c3ccc4ccc(-c5ccccc5)nc4c3)c3c(N)nccn32)C1 [Linsitinib] (partner 1 µM)
In short: (§1)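 Dosing by pin tool came one day after lung cancer cell lines were seeded in 1536-well plates, using either one drug or a fixed anchor-drug dose plus five library-drug doses (not always all listed) in √10 steps. After 5 days, nuclei were counted on 4× images. Relative viability is treated-well nuclei count divided by vehicle-well nuclei count, and values are medians of duplicate plates.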

[2] = compound: C=CCn1c(=O)c2cnc(Nc3ccc(N4CCN(C)CC4)cc3)nc2n1-c1cccc(C(C)(C)O)n1 [Adavosertib] + N=C(N)NC(=N)NCCc1ccccc1 [Phenformin] (partner 250 µM)
In short: as §1

[3] = compound: C=CCn1c(=O)c2cnc(Nc3ccc(N4CCN(C)CC4)cc3)nc2n1-c1cccc(C(C)(C)O)n1 [Adavosertib] + Nc1ncn([C@H]2C[C@H](O)[C@@H](CO)O2)c(=O)n1 [Decitabine] (partner 2 µM)
In short: as §1

[4] = compound: C=CCn1c(=O)c2cnc(Nc3ccc(N4CCN(C)CC4)cc3)nc2n1-c1cccc(C(C)(C)O)n1 [Adavosertib] + CCNC(=O)c1noc(-c2cc(C(C)C)c(O)cc2O)c1-c1ccc(CN2CCOCC2)cc1 [Luminespib] (partner 0.01 µM)
In short: as §1

Row | Cell Line | relative viability ([1]; first compound 0.01 µM) | relative viability ([1]; first compound 0.03162 µM) | relative viability ([1]; first compound 0.1 µM) | relative viability ([1]; first compound 0.3162 µM) | relative viability ([1]; first compound 1 µM) | relative viability ([2]; first compound 0.01 µM) | relative viability ([2]; first compound 0.03162 µM) | relative viability ([2]; first compound 0.1 µM) | relative viability ([2]; first compound 0.3162 µM) | relative viability ([3]; first compound 0.01 µM) | relative viability ([3]; first compound 0.03162 µM) | relative viability ([3]; first compound 0.1 µM) | relative viability ([3]; first compound 0.3162 µM) | relative viability ([4]; first compound 0.01 µM) | relative viability ([4]; first compound 0.03162 µM) | relative viability ([4]; first compound 0.1 µM) | relative viability ([4]; first compound 0.3162 µM)
1 | NCI-H460 | 1.09 | 0.891 | 1.12 | 1.21 | 0.731 | 0.523 | 0.566 | 0.493 | 0.317 | 0.569 | 0.449 | 0.512 | 0.393 | 0.0322 | 0.0312 | 0.0317 | 0.0275
2 | NCI-H1651 | 1.13 | 0.88 | 1.15 | 0.992 | 0.906 | 0.3 | 0.354 | 0.31 | 0.237 | 0.578 | 0.681 | 0.603 | 0.525 | 0.812 | 1.06 | 0.733 | 0.678
3 | NCI-H1734 | 0.954 | 0.855 | 0.932 | 0.931 | 0.939 | 0.411 | 0.367 | 0.374 | 0.264 | 0.501 | 0.511 | 0.474 | 0.363 | 0.234 | 0.241 | 0.184 | 0.191
4 | NCI-H661 | 0.719 | 0.859 | 0.723 | 0.555 | 0.535 | 0.28 | 0.264 | 0.276 | 0.252 | 0.595 | 0.577 | 0.489 | 0.4 | 0.898 | 0.924 | 1.06 | 0.557
5 | H3255 | 1.31 | 1.09 | 1.12 | 0.885 | 0.957 | 0.351 | 0.369 | 0.363 | 0.336 | 0.636 | 0.694 | 0.609 | 0.674 | 0.801 | 1.03 | 0.937 | 0.95
6 | NCI-H596 | 1.15 | 1.2 | 1.07 | 1.16 | 1.04 | 0.662 | 0.909 | 0.754 | 1 | 1.1 | 1.02 | 1.02 | 0.866 | 0.911 | 1.2 | 0.958 | 0.76
7 | NCI-H1437 | 1.27 | 1.05 | 0.998 | 1.08 | 1.01 | 0.388 | 0.308 | 0.275 | 0.285 | 0.57 | 0.633 | 0.636 | 0.618 | 1.07 | 1.2 | 1.17 | 1.07
8 | LCLC-103H | 1.22 | 1.11 | 1.08 | 1.02 | 1.11 | 0.347 | 0.372 | 0.319 | 0.3 | 0.71 | 0.722 | 0.73 | 0.721 | 0.865 | 1.05 | 0.892 | 0.837
9 | NCI-H1792 | 0.621 | – | 0.548 | 0.702 | 0.716 | 0.27 | 0.217 | – | 0.259 | 0.507 | 0.596 | 0.645 | 0.669 | 0.595 | 0.446 | 0.456 | 0.569
10 | NCI-H2347 | 1.08 | 1.02 | 0.968 | 0.939 | 1.04 | 0.306 | 0.496 | 0.5 | 0.411 | 0.637 | 0.595 | 0.65 | 0.621 | 0.467 | 0.382 | 0.723 | 0.292
11 | NCI-H3122 | 1.04 | 0.77 | – | 0.97 | 1.04 | 0.365 | 0.402 | 0.355 | 0.365 | 0.41 | 0.49 | 0.484 | 0.494 | 0.0987 | 0.0823 | 0.12 | 0.0969
12 | NCI-H1793 | 1.3 | 0.801 | 0.863 | 0.724 | 0.84 | 0.356 | 0.385 | 0.414 | 0.273 | 0.37 | 0.477 | 0.521 | 0.358 | 0.148 | 0.21 | 0.179 | 0.156
13 | NCI-H358 | 0.891 | 0.613 | 0.694 | 0.865 | 0.74 | 0.288 | 0.295 | 0.322 | 0.24 | 0.246 | 0.201 | 0.188 | 0.193 | 0.28 | 0.307 | 0.454 | 0.359
14 | HOP-62 | 0.933 | 0.967 | 1.11 | 0.872 | 0.801 | 0.698 | 0.621 | 0.802 | 0.769 | 0.27 | 0.239 | 0.229 | 0.223 | 0.997 | 0.906 | 0.909 | 0.945
15 | NCI-H1944 | 1.28 | 1.16 | 1.38 | 1.21 | 1.08 | 0.23 | 0.202 | 0.19 | 0.206 | 0.415 | 0.439 | 0.448 | 0.369 | 0.696 | 0.715 | 0.655 | 0.575
16 | NCI-H838 | 1.29 | 0.907 | 1.06 | 1.11 | 1.13 | 0.57 | 0.502 | 0.525 | 0.655 | 0.516 | 0.53 | 0.612 | 0.497 | 0.293 | 0.302 | 0.313 | 0.284
17 | ABC-1 | 0.955 | 1.19 | 0.83 | 0.809 | 0.723 | 0.228 | 0.237 | 0.208 | 0.222 | 1.28 | 1.04 | 1.17 | 0.959 | 0.799 | 0.357 | 0.584 | 0.364
